# From article PMC13194776, “Small-molecule binding and sensing with a designed protein family” (Nature Communications, 2026)
# Experiments:
# [1] = Cross-reactivity FP binding to HCY-TAMRA; conditions: HCY-TAMRA 5 nM
# Experimental: (§1) Two-fold serial dilutions of the binder protein were prepared in 24 wells with constant amounts of the target ligand, and the plate was incubated at room temperature, shaking for at least 30 min. Fluorescence polarization filter cube (Red FP, EX 530/25 nm;EM 590/35 nm, Agilent) was used to measure polarization with the plate reader (Synergy Neo2, Biotek). A binding isotherm model was used to fit the data and estimate KD.
# (§2) We performed an all by all binding experiment between all targets and representative binders for each target. […] Fluorescence polarization filter cube (Red1 FP, EX 530/25 nm;EM 590/35 nm, Agilent) was used to measure polarization. […] Biotinylated APX and ROC were immobilized to the Streptavidin biosensor and all binders were titrated 3-fold starting from 25uM. Other experimental conditions were kept the same as described above for characterization using FP and BLI.
# [2] = Cross-reactivity FP binding to OHP-TAMRA; conditions: OHP-TAMRA 5 nM
# Experimental: as §1, §2
# [3] = Cross-reactivity FP binding to SN-38-TAMRA; conditions: SN-38-TAMRA 10 nM
# Experimental: as §1, §2
# [4] = Cross-reactivity BLI binding to APX-Biotin; conditions: APX-Biotin immobilized, binders titrated 3-fold from 25uM
# Experimental: (§3) Biolayer interferometry (BLI) was used to estimate the binding affinity and screen for binding of the purified proteins and target small-molecules APX, and SN-38. […] 1 μM of small-molecule targets with biotin conjugated (APX-Biotin and SN-38-Biotin) were used as ligands to be immobilized to the Octet Streptavidin biosensors (Sartorius). Titration experiments were performed at 25 °C, and the kinetic response data was collected using Octet RED96 and R8 (ForteBio). The resulting responses of the analytes were corrected using the signal from the reference buffer, and further analysis was performed using the Octet Data Analysis software.
# as §2
# [5] = Cross-reactivity BLI binding to ROC-Biotin; conditions: ROC-Biotin immobilized, binders titrated 3-fold from 25uM
# Experimental: as §3, §2
# albumin = target: T1, albumin; assay: Fluorescence polarization cross-reactivity assay with TAMRA-labelled ligands at 5 nM (HCY, OHP, WRF) or 10 nM (SN-38) titrated with binder or albumin.; type: binding; conditions: read-out: KD (μM), specificity table, TAMRA-labelled targets
# T1 construct: control protein
# Text: (§4) measured against all six targets. Raw binding traces can be found in Supplementary
# hcy129.1 [6] = target: T2, hcy129.1; assay: as above; type: binding; conditions: read-out: KD (μM), specificity table, TAMRA-labelled targets
# T2 construct: N-terminal hexahistidine tag; 4 mutations compared to the original design
# Text: as §4
# iri807.1 [7] = target: T3, iri807.1; assay: as above; type: binding; conditions: read-out: KD (μM), specificity table, TAMRA-labelled targets
# T3 construct: N-terminal hexahistidine tag; 3 mutations compared to the original design
# Text: as §4
# ohp1952 = target: T4, ohp1952; assay: as above; type: binding; conditions: read-out: KD (μM), specificity table, TAMRA-labelled targets
# T4 construct: N-terminal hexahistidine tag; original design
# Text: as §4
# roc22182.1 [8] = target: T5, roc22182.1; assay: as above; type: binding; conditions: read-out: KD (μM), specificity table, TAMRA-labelled targets
# T5 construct: N-terminal hexahistidine tag; 9 mutations compared to the original design
# Text: as §4
# apx1049 = target: T6, apx1049; assay: Isothermal titration calorimetry at 25 °C with warfarin or apixaban, 5% DMSO in all solutions, single-site binding model.; conditions: read-out: KD (μM), ITC, warfarin and apixaban
# T6 construct: N-terminal hexahistidine tag; original design
# Experimental: (§5) Binding affinity of designed proteins was assessed by titrating purified protein with ligand using a microcal PEAQ ITC-Automated instrument. Both protein and ligand were prepared in identical buffers that were degassed by bottle-top filtration. […] All titrations were performed at 25 °C and 19 total injections, 0.4 μL for the first injection and 2 μL for the remaining 18. Resulting titration data were analyzed with the Malvern Panalytical ITC Analysis software, and a single-site binding model was used to fit the resulting data.
# apx1493 = target: T7, apx1493; assay: as above; conditions: read-out: KD (μM), ITC, warfarin and apixaban
# T7 construct: N-terminal hexahistidine tag; original design
# Experimental: as §5
# apx1501 = target: T8, apx1501; assay: as above; conditions: read-out: KD (μM), ITC, warfarin and apixaban
# T8 construct: N-terminal hexahistidine tag; original design
# Experimental: as §5
# apx2592 = target: T9, apx2592; assay: as above; conditions: read-out: KD (μM), ITC, warfarin and apixaban
# T9 construct: N-terminal hexahistidine tag; original design
# Experimental: as §5
# hcy129.1_CID = target: T10, hcy129.1_CID; assay: Isothermal titration calorimetry at 25 °C with cortisol, 1% DMSO in all solutions, single-site binding model.; conditions: read-out: KD (μM), ITC, cortisol
# T10 construct: 7 mutations compared to the original design
# Experimental: as §5
# (§6) Supplementary Table 2. Small-molecule binding characterization results
# (§7) Target Design name Number of KD (μM) KD determination
# hcy129.1 [9] = target: T2, hcy129.1; assay: as above; conditions: read-out: KD (μM), ITC, cortisol
# Experimental: as §5, §6, §7
# hcy129_mpnn5 = target: T11, hcy129_mpnn5; assay: as above; conditions: read-out: KD (μM), ITC, cortisol
# T11 construct: ProteinMPNN surface-redesigned version; 9 mutations compared to the original design as printed
# Experimental: as §5, §6, §7
# hcy129 = target: T12, hcy129; assay: as above; conditions: read-out: KD (μM), ITC, cortisol
# T12 construct: N-terminal hexahistidine tag; original design
# Experimental: as §5, §6, §7
# hcy129.1 [10] = target: T2, hcy129.1; assay: Isothermal titration calorimetry of purified designs with unlabelled ligand at 25 °C, single-site fit; 1% DMSO for cortisol, 5% DMSO for warfarin and apixaban, HEPES pH 8 for rocuronium.; type: binding; conditions: read-out: KD (μM) ITC
# Experimental: Characterization of binding affinity by ITC
# as §5
# [11] = system: hcy129.1_CID-SmBiT and miniH11_LgBiT; assay: Cortisol-induced dimerization NanoBiT luminescent sensor; type: biochemical; conditions: sensor components 200 nM each, 2 h, DTZ 25 μM; estimated; read-out: EC50 of luminescent signal
# Experimental: Immediately after adding the luciferase substrate diphenylterazine (DTZ) at a final concentration of 25 μΜ, the luminescent signal was measured on a Neo2 plate reader (Fig. 4H).
# hcy129.1_CID (200 nM) and minibinder designed for CID (miniH11, 200 nM) was titrated with various
# ligands and incubated for 2 hours, followed by addition of DTZ (25 μM) to initiate luminescence reaction.
# All reactions were carried out at 50 μL final volume in HBS-EP+ buffer (Cytiva).
# iri3009 = target: T13, iri3009; assay: Fluorescence polarization with 6 nM fluorophore-labelled OHP-AF488 or SN-38-TAMRA titrated with binder protein in PBS at room temperature, binding isotherm fit.; conditions: read-out: KD (μM), FP
# T13 construct: N-terminal hexahistidine tag; original design
# Experimental: (§8) Two-fold serial dilutions of the binder protein were prepared in 24 wells with constant amounts of the target ligand, and the plate was incubated at room temperature, shaking for at least 30 min. […] A binding isotherm model was used to fit the data and estimate KD.
# as §6, §7
# iri807.1 [12] = target: T3, iri807.1; assay: as above; conditions: read-out: KD (μM), FP
# Experimental: as §8, §6, §7
# iri807.2 = target: T14, iri807.2; assay: as above; conditions: read-out: KD (μM), FP
# T14 construct: N-terminal hexahistidine tag; 3 mutations compared to the original design
# Experimental: as §8, §6, §7
# iri807.3 = target: T15, iri807.3; assay: as above; conditions: read-out: KD (μM), FP
# T15 construct: N-terminal hexahistidine tag; 3 mutations compared to the original design
# Experimental: as §8, §6, §7
# iri807 = target: T16, iri807; assay: as above; conditions: read-out: KD (μM), FP
# T16 construct: N-terminal hexahistidine tag; original design
# Experimental: as §8, §6, §7
# wrf1071 [13] = target: T17, wrf1071; assay: Fluorescence polarization cross-reactivity assay with TAMRA-labelled ligands at 5 nM (HCY, OHP, WRF) or 10 nM (SN-38) titrated with binder or albumin.; type: binding; conditions: read-out: KD (μM), specificity table, TAMRA-labelled targets
# T17 construct: N-terminal hexahistidine tag; original design
# Text: as §4
# roc22182.1 [14] = target: T5, roc22182.1; assay: Isothermal titration calorimetry at 25 °C with rocuronium in 20 mM HEPES, 50 mM NaCl, pH 8, no DMSO, single-site binding model.; conditions: read-out: KD (μM), ITC, rocuronium
# Experimental: as §5, §6, §7
# roc22182 = target: T18, roc22182; assay: as above; conditions: read-out: KD (μM), ITC, rocuronium
# T18 construct: N-terminal hexahistidine tag; original design
# Experimental: as §5, §6, §7
# wrf929 = target: T19, wrf929; assay: Isothermal titration calorimetry at 25 °C with warfarin or apixaban, 5% DMSO in all solutions, single-site binding model.; conditions: read-out: KD (μM), ITC, warfarin and apixaban
# T19 construct: N-terminal hexahistidine tag; original design
# Experimental: as §5, §6, §7
# wrf1071 [15] = target: T17, wrf1071; assay: as above; conditions: read-out: KD (μM), ITC, warfarin and apixaban
# Experimental: as §5
compound,measurement,setting,value
Albumin: control protein known for promiscuous binding to hydrophobic ligands; bovine serum albumin per b230,Binding affinity KD,[1],No binding
same,Binding affinity KD,[1]; listed as albumin,no binding
same,Binding affinity KD,[2],weak binding
same,Binding affinity KD,[3],No binding
same,Binding affinity KD,[3]; listed as albumin,no binding
same,Binding affinity KD,[4],No binding
same,Binding affinity KD,[4]; listed as albumin,no binding
same,Binding affinity KD,[5],No binding
same,Binding affinity KD,[5]; listed as albumin,no binding
17α-hydroxyprogesterone-TAMRA (TAMRA conjugate) [OHP-TAMRA],Kd,albumin,52 µM
same,Kd,hcy129.1 [6],0.005 µM
same,Kd,iri807.1 [7],0.27 µM
same,Kd,ohp1952,0.005 µM
same,Kd,roc22182.1 [8],0.078 µM
"COc1ccc(-n2nc(C(N)=O)c3c2C(=O)N(c2ccc(N4CCCCC4=O)cc2)CC3)cc1 [apixaban, apixaban (APX)]",Kd,apx1049,0.679 µM
same,Kd,apx1493,9.67 µM
same,Kd,apx1501,5.5 µM
same,Kd,apx2592,3.16 µM
"C[C@]12CCC(=O)C=C1CC[C@@H]1[C@@H]2[C@@H](O)C[C@@]2(C)[C@H]1CC[C@]2(O)C(=O)CO [cortisol, cortisol (HCY)]",Kd,hcy129.1_CID,0.064 µM
same,Kd,hcy129.1 [9],0.065 µM
same,Kd,hcy129_mpnn5,3.4 µM
same,Kd,hcy129,2.3 µM
same,Kd,hcy129.1 [10],0.068 µM
C[C@]12CCC(=O)C=C1CC[C@@H]1[C@@H]2[C@@H](O)C[C@@]2(C)[C@H]1CC[C@]2(O)C(=O)CO [cortisol],EC50,[11],72 nM
SN-38-TAMRA (fluorophore linker conjugate of SN-38),Kd,iri3009,1.41 µM
same,Kd,iri807.1 [12],0.059 µM
same,Kd,iri807.2,0.063 µM
same,Kd,iri807.3,0.016 µM
same,Kd,iri807,0.09 µM
same,Kd,iri807.1 [7],0.048 µM
same,Kd,wrf1071 [13],42 µM
cortisol-TAMRA (TAMRA conjugate of cortisol) [HCY-TAMRA],Kd,hcy129.1 [6],0.005 µM
same,Kd,iri807.1 [7],26 µM
same,Kd,roc22182.1 [8],1.4 µM
same,Kd,wrf1071 [13],67 µM
"C=CC[N+]1([C@H]2C[C@H]3[C@@H]4CC[C@H]5C[C@H](O)[C@@H](N6CCOCC6)C[C@]5(C)[C@H]4CC[C@]3(C)[C@H]2OC(C)=O)CCCC1 [rocuronium, rocuronium (ROC)]",Kd,roc22182.1 [14],> 4 µM
same,Kd,roc22182,> 50 µM
"CC(=O)CC(c1ccccc1)c1c(O)c2ccccc2oc1=O (stereo not drawn) [warfarin, warfarin (WRF)]",Kd,wrf929,5.9 µM
same,Kd,wrf1071 [15],0.83 µM
